Among the data in ChEMBL document CHEMBL5729376, “SSAO inhibitors and use thereof” (2022) are IC50 values, retold here.

Where only a bound is given, the exact number is not on record here.

The target in test [1] is T1, Amine oxidase [flavin-containing] A (Homo sapiens, UniProt P21397).
T1 sequence (P21397 whole entry): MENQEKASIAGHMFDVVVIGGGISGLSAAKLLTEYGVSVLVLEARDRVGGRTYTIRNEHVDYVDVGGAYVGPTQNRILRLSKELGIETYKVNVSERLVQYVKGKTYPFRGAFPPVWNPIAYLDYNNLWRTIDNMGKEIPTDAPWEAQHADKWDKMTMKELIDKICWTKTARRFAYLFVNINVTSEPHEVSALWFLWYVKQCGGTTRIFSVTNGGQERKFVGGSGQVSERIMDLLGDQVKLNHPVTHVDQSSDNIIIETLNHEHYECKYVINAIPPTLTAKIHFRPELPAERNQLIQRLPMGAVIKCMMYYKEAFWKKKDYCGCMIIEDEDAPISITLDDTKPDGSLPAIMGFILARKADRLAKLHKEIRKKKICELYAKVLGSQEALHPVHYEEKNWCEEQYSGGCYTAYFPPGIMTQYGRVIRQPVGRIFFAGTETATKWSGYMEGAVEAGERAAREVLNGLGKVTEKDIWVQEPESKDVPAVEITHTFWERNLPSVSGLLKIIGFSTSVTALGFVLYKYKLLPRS
The experiment in a line: (§1) SSAO Activity Assay: Amine oxidase activity of recombinant hSSAO, hMAO-A, and hMAO-B isoforms are measured using the MAO-Glo assay kit (Promega, V1402). Ten nL test compounds (with DMSO as vehicle, 0.1% v/v for hSSAO, hMAO-A and hMAO-B) were added into assay plates by Echo, and pre-incubated with 5 μL of enzyme for 30 mins at room temperature before the addition of 5 μL of luminogenic substrate. The substrate concentration is 40 μM for human recombinant SSAO, 40 μM for human recombinant MAO-A, and 4 μM for human recombinant MAO-B. The hSSAO and hMAO-A assays were conducted in the MAO-A reaction buffer in the kit, and the MAO-B assay was conducted in the MAO-B reaction buffer. Oxidation of the substrate was conducted for 1 hr, before the addition of detecting reagent according the manufacture's protocol. The IC50 value of the tested compounds was calculated by fitting the dose response curve using a 4-parameter non-linear regression routine.

The target in test [2] is T2, Amine oxidase [flavin-containing] B (Homo sapiens, UniProt P27338).
T2 sequence (P27338 whole entry): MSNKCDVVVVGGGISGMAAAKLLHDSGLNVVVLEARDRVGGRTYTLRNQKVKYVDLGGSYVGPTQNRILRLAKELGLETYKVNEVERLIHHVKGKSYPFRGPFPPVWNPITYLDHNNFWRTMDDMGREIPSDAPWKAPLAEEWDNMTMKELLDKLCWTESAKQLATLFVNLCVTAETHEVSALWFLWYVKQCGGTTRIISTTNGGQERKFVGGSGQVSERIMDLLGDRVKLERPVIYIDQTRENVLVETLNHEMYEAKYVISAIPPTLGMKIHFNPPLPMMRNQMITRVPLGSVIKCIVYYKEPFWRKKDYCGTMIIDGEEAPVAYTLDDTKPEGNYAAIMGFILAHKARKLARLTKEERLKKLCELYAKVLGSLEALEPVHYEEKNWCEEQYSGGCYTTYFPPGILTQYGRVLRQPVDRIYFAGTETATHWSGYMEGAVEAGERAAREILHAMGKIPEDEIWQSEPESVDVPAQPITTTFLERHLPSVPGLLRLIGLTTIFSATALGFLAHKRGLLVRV
The test is described as §1.

The IC50 is the concentration needed to halve the response being measured. For the molecule `COCCOCS(=O)(=O)c1ccc(OC/C(=C/F)CN)cc1`, the IC50 in test [1] and in test [2] was more than 30 µM each time.

Take `COCC(COC)CS(=O)(=O)c1ccc(OC/C(=C/F)CN)cc1`: the results for the IC50 in test [1] and in test [2] were more than 30 µM and less than 10 µM, respectively.

`NC/C(=C\F)COc1ccc(S(=O)(=O)COCC2CCOCC2)cc1`: the IC50 in test [1] was more than 30 µM; in test [2], 10 to 30 µM.

As for `CC(C)N(C)C(=O)C(C)(C)CS(=O)(=O)c1ccc(OC/C(=C/F)CN)cc1`, the IC50 in test [1] and in test [2] was more than 30 µM throughout.

For `C[C@@H](CN1CCC2(CCCC2)C1=O)CS(=O)(=O)c1ccc(OC/C(=C/F)CN)cc1`, the IC50 in test [1] is more than 30 µM; in test [2] it was less than 10 µM.

For the molecule `NC/C(=C\F)COc1ccc(S(=O)(=O)C[C@H]2CCCO2)cc1`, the IC50 in test [1] was more than 30 µM; in test [2] it was less than 10 µM.

On to `NC/C(=C\F)COc1ccc(S(=O)(=O)C[C@H]2CCOC2)cc1`, for which the IC50 in test [1] is 10 to 30 µM; in test [2], less than 10 µM.

With `NC/C(=C\F)COc1ccc(S(=O)(=O)Cc2cnc(N3CCCC3)nc2)cc1`, the values for the IC50 in test [1] and in test [2] were more than 30 µM and less than 10 µM, respectively.

`NC/C(=C\F)COc1ccc(S(=O)(=O)CC2CCOCC2)cc1F`: the IC50 in test [1] and in test [2] was less than 10 µM each time.

As for `NC/C(=C\F)COc1ccc(S(=O)(=O)C[C@@H]2CCOC2)cc1`, the IC50 in test [1] is 10 to 30 µM; in test [2], less than 10 µM.

For `CC1(CS(=O)(=O)c2ccc(OC/C(=C/F)CN)cc2F)CCOCC1`, the IC50 in test [1] and in test [2] was less than 10 µM throughout.

Regarding `NC/C(=C\F)COc1ccc(S(=O)(=O)C[C@H]2CC[C@H](O)CC2)cc1`, the IC50 in test [1] and in test [2] was 10 to 30 µM each time.

`CC1(CS(=O)(=O)c2ccc(OC/C(=C/F)CN)cc2)CCOCC1`: the IC50 in test [1] is more than 30 µM; in test [2] it was less than 10 µM.

On to `NC/C(=C/F)COc1ccc(S(=O)(=O)CC23CCC(NC(=O)C4CC4)(CC2)CC3)cc1`, for which the IC50 is more than 30 µM in test [1] and less than 10 µM in test [2].

On to `CC(C)(C)C(=O)N1CCC(CS(=O)(=O)c2ccc(OC/C(=C/F)CN)cc2)CC1`, for which the IC50 in test [1] and in test [2] was more than 30 µM throughout.

With `NC/C(=C\F)COc1ccc(S(=O)(=O)COC2CCOCC2)cc1`, the IC50 in test [1] is more than 30 µM; in test [2] it was less than 10 µM.

Take `CO[C@H]1CC[C@@H](CS(=O)(=O)c2ccc(OC/C(=C/F)CN)cc2)CC1`: the half-maximal inhibitory concentration (IC50) in test [1] and in test [2] was 10 to 30 µM in each case.

As to `CC1(C)COC(CS(=O)(=O)c2ccc(OC/C(=C/F)CN)cc2)CO1` (stereo not given), the IC50 is more than 30 µM in test [1] and less than 10 µM in test [2].

Turning to `NC/C(=C\F)COc1ccc(S(=O)(=O)CC23CCC(C(=O)NC4CCC4)(CC2)C3)cc1`, the results for the IC50 in test [1] and in test [2] were more than 30 µM and less than 10 µM, respectively.

For `C[C@H](CN1CCC2(CCCC2)C1=O)CS(=O)(=O)c1ccc(OC/C(=C/F)CN)cc1`, the values for the IC50 in test [1] and in test [2] were more than 30 µM and less than 10 µM, respectively.

For `NC/C(=C\F)COc1ccc(S(=O)(=O)CC23CCC(N4CCCS4(=O)=O)(CC2)CC3)cc1`, the IC50 in test [1] and in test [2] was more than 30 µM in each case.

As for `COCC(COC)OCS(=O)(=O)c1ccc(OC/C(=C/F)CN)cc1`, the IC50 in test [1] is more than 30 µM; in test [2], less than 10 µM.

In the case of `NC/C(=C\F)COc1ccc(S(=O)(=O)CC23CCC(C(=O)O)(CC2)CC3)cc1`, the IC50 in test [1] and in test [2] was more than 30 µM in each case.

With `CC(C)C(=O)N1CCC(C)(CS(=O)(=O)c2ccc(OC/C(=C/F)CN)cc2)CC1`, the IC50 in test [1] and in test [2] was more than 30 µM throughout.

In the case of `CO[C@H]1CC[C@H](CS(=O)(=O)c2ccc(OC/C(=C/F)CN)cc2)CC1`, the values for the IC50 in test [1] and in test [2] were 10 to 30 µM and less than 10 µM, respectively.
